In the supplement of paper PMC10307832:

Experiments:
Experiment in all cases: relative viability (nuclei count vs DMSO), 5 days (fraction); higher = more cells survive
[1] = compound: CC[C@H](Nc1ncnc2[nH]cnc12)c1nc2cccc(F)c2c(=O)n1-c1ccccc1 [Idelalisib] + Nc1ncn([C@H]2C[C@H](O)[C@@H](CO)O2)c(=O)n1 [Decitabine] (partner 2 µM)
In short: (§1)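 Each reported value is a median over duplicate plates. It expresses relative viability: treated-well nuclei count divided by vehicle-well nuclei count. Lung cancer cell lines in 1536-well plates were dosed by pin tool a day after seeding, alone with one drug or with a fixed anchor-drug dose plus five library-drug doses (not always all listed) in √10 steps, and nuclei were counted after 5 days.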

[2] = compound: Nc1nc2[nH]cc(CCc3ccc(C(=O)N[C@@H](CCC(=O)O)C(=O)O)cc3)c2c(=O)[nH]1 [Pemetrexed] + Cc1cc(Nc2cc(N3CCN(C)CC3)nc(Sc3ccc(NC(=O)C4CC4)cc3)n2)n[nH]1 [Tozasertib] (partner 0.1 µM)
In short: as §1

[3] = compound: CC[C@H](Nc1ncnc2[nH]cnc12)c1nc2cccc(F)c2c(=O)n1-c1ccccc1 [Idelalisib] + Cc1nc(Nc2ncc(C(=O)Nc3c(C)cccc3Cl)s2)cc(N2CCN(CCO)CC2)n1 [Dasatinib] (partner 0.075 µM)
In short: as §1

[4] = compound: Nc1nc2[nH]cc(CCc3ccc(C(=O)N[C@@H](CCC(=O)O)C(=O)O)cc3)c2c(=O)[nH]1 [Pemetrexed] + CC(=O)Nc1cccc(-n2c(=O)n(C3CC3)c(=O)c3c(Nc4ccc(I)cc4F)n(C)c(=O)c(C)c32)c1 [Trametinib] (partner 0.02 µM)
In short: as §1

Cell Line	relative viability ([1]; first compound 0.04 µM)	relative viability ([1]; first compound 0.1265 µM)	relative viability ([1]; first compound 0.4 µM)	relative viability ([1]; first compound 1.265 µM)	relative viability ([1]; first compound 4 µM)	relative viability ([2]; first compound 0.002 µM)	relative viability ([2]; first compound 0.006325 µM)	relative viability ([2]; first compound 0.02 µM)	relative viability ([2]; first compound 0.06325 µM)	relative viability ([2]; first compound 0.2 µM)	relative viability ([3]; first compound 0.04 µM)	relative viability ([3]; first compound 0.1265 µM)	relative viability ([3]; first compound 0.4 µM)	relative viability ([3]; first compound 1.265 µM)	relative viability ([3]; first compound 4 µM)	relative viability ([4]; first compound 0.002 µM)	relative viability ([4]; first compound 0.006325 µM)	relative viability ([4]; first compound 0.06325 µM)	relative viability ([4]; first compound 0.2 µM)	relative viability ([4]; first compound 0.02 µM)
NCI-H650	0.345	0.324	0.344	0.348	0.28	0.666	0.691	0.826	0.734	0.74	0.498	0.438	0.432	0.481	0.394	0.894	0.887	1.03	1.02	–
NCI-H1975	0.393	0.374	0.373	0.383	0.381	0.756	0.752	0.768	0.704	0.297	0.363	0.436	0.263	0.402	0.293	0.277	0.408	0.329	0.237	0.323
NCI-H2126	0.545	0.56	0.532	0.548	0.524	0.711	0.845	0.875	0.775	0.643	0.548	0.664	0.522	0.62	0.557	0.55	0.522	0.567	0.533	0.591
NCI-H2087	0.357	0.337	0.217	0.244	0.269	0.257	0.276	0.287	0.297	0.232	0.966	0.906	0.696	1.03	0.514	0.145	0.173	0.212	0.249	0.215
